Assay results reported in patent publication US20200017496A1 (priority 2017, published 2020).
“And” between values parts separate entries of the source, which are not always exact repeats. Equal values may be shown once. Read-outs that look alike come from different tables or passages of the source.

What was measured:
Type in all cases: cell-based
[1] = test system: Morganella morganii (MMO) isolates; experiment: MIC of compounds alone and combined with antibacterials, broth microdilution (CLSI); conditions: Morganella morganii
Experimental: (§1) Method 2: MIC of Compounds Alone and Combined with Antibacterials Against Bacterial Isolates.
(§2) Compounds of the present invention were assessed against genotyped bacterial strains (Table 3, 4) alone or in combination with an antibacterial (Table 2). […] Log phase bacterial suspensions were adjusted to a final density of 5·10^5 CFU/mL in cation-adjusted Mueller-Hinton broth (ca-MHB; Becton-Dickinson and Company) and added to each well (98 μL). Microplates were incubated for 16-20 h at 35° C. in ambient air. The MIC of the compounds was defined as the lowest concentration of said compounds that prevented bacterial growth as read by visual inspection. The MIC of ATB at each compound concentration was defined as the lowest concentration of ATB that prevented bacterial growth as read by visual inspection.

[2] = test system: Providencia stuartii (PST) isolates; experiment: as above; conditions: for MIC ATB in combination: AF1 @ 4 μg/mL
Experimental: as §1, §2

[3] = test system: Enterobacter aerogenes (EAE) isolates; experiment: as above
Experimental: as §1, §2

[4] = test system: Citrobacter freundii (CFR) isolates; experiment: as above
Experimental: as §1, §2

[5] = test system: Proteus mirabilis (PMI) isolates; experiment: microbe, parasite or virus in culture; conditions: for MIC ATB in combination: AF1 @ 4 μg/mL
Experimental: as §1, §2

CC1(C)S[C@@H]2[C@H](NC(=O)[C@H](N)c3ccc(O)cc3)C(=O)N2[C@H]1C(=O)O [AMX, Amoxicillin]
MIC ([1]; strain MMO 200321 (TEM-1, CTX-M-15, OXA-1), CLA @ 4 μg/ml+ ATB): > 128 µg/mL
MIC ([1]; strain MMO UFR144 (TEM-1, CTX-M-15), ATB alone): > 128 µg/mL
MIC ([1]; strain MMO UFR144 (TEM-1, CTX-M-15), CLA @ 4 μg/ml+ ATB): > 128 µg/mL
MIC ([1]; strain MMO UFR240 (CTX-M-9), ATB alone): > 128 µg/mL
MIC ([1]; strain MMO UFR240 (CTX-M-9), CLA @ 4 μg/ml+ ATB): > 128 µg/mL
MIC ([1]; strain MMO UFR241 (TEM-1, CTX-M-15), ATB alone): > 128 µg/mL
MIC ([1]; strain MMO UFR241 (TEM-1, CTX-M-15), CLA @ 4 μg/ml+ ATB): > 128 µg/mL
MIC ([1]; strain MMO UFR242 (TEM-52), ATB alone): > 128 µg/mL
MIC ([1]; strain MMO UFR242 (TEM-52), CLA @ 4 μg/ml+ ATB): > 128 µg/mL
MIC [2]: 128 µg/mL
MIC ATB in combination ([2]; PST UFR94): 16 µg/mL
MIC ATB in combination ([2]; PST UFR95): 32 µg/mL
MIC ATB in combination ([2]; PST UFR235): 32 µg/mL
MIC ([2]; Providencia stuartii): > 128 µg/mL
MIC [3]: >256 µg/mL
MIC ATB in combination [3]: 128 µg/mL
MIC ATB in combination ([3]; EAE UFR199, AF1 @ 4 μg/mL): 64 µg/mL
MIC ATB in combination ([3]; EAE UFR201, AF1 @ 4 μg/mL): <=1 μg/mL
MIC ATB in combination ([3]; EAE UFR202, AF1 @ 4 μg/mL): 64 µg/mL
MIC ATB in combination ([3]; EAE UFR213, AF1 @ 4 μg/mL): 32 µg/mL
MIC ([3]; Klebsiella aerogenes): > 128 µg/mL
MIC ([3]; Klebsiella aerogenes, strain EAE 49469 (AmpC), ATB alone, read-out: MIC): > 1020 µg/mL
MIC ([3]; Klebsiella aerogenes, strain EAE UFR201 (TEM-1, SHV-12, CTX-M-15), CLA @ 4 μg/ml+ ATB, read-out: MIC): 16 µg/mL
MIC [4]: 128 µg/mL and >256 µg/mL
MIC ATB in combination [4]: 128 µg/mL
MIC ATB in combination ([4]; CFR UFR11, AF1 @ 4 μg/mL): >512 µg/mL
MIC ATB in combination ([4]; CFR UFR83, AF1 @ 4 μg/mL): >512 µg/mL
MIC ATB in combination ([4]; CFR UFR146, AF1 @ 4 μg/mL): 256 µg/mL
MIC ATB in combination ([4]; CFR UFR248, AF1 @ 4 μg/mL): 64 µg/mL
MIC ATB in combination ([4]; CFR UFR249, AF1 @ 4 μg/mL): 256 µg/mL
MIC ATB in combination ([4]; CFR UFR250, AF1 @ 4 μg/mL): 32 µg/mL
MIC ([4]; Citrobacter freundii): > 128 µg/mL
MIC ATB in combination ([4]; strain CFR UFR253, antibacterial combined with AF1 @ 4 μg/mL): 4 µg/mL
MIC ATB in combination ([4]; strain CFR UFR254, antibacterial combined with AF1 @ 4 μg/mL): 4 µg/mL
MIC [5]: 128 µg/mL
MIC ATB in combination ([5]; PMI UFR82): 8 µg/mL
MIC ATB in combination ([5]; PMI UFR120): <=0.25 μg/mL
MIC ATB in combination ([5]; PMI UFR121): <=0.25 μg/mL
MIC ATB in combination ([5]; PMI UFR122): <=0.25 μg/mL
MIC ATB in combination ([5]; PMI UFR123): <=0.25 μg/mL
MIC ATB in combination ([5]; PMI UFR124): <=0.25 μg/mL
MIC ATB in combination ([5]; PMI UFR125): <=0.25 μg/mL
MIC ATB in combination ([5]; PMI UFR126): 4 µg/mL
MIC ATB in combination ([5]; PMI UFR127): 4 µg/mL
MIC ATB in combination ([5]; PMI UFR129): 8 µg/mL
MIC ATB in combination ([5]; PMI UFR130): 8 µg/mL
MIC ATB in combination ([5]; PMI UFR237): 16 µg/mL
MIC ([5]; Proteus mirabilis): > 128 µg/mL
MIC ([5]; Proteus mirabilis, strain PMI UFR82 (CMY-2), ATB alone, read-out: MIC): 256 µg/mL
MIC ([5]; Proteus mirabilis, strain PMI UFR120 (TEM-1, SHV-11, CTX-M-14), CLA @ 4 μg/ml+ ATB, read-out: MIC): 8 µg/mL
MIC ([5]; Proteus mirabilis, strain PMI UFR121 (TEM-1, TEM-52), CLA @ 4 μg/ml+ ATB, read-out: MIC): 4 µg/mL
MIC ([5]; Proteus mirabilis, strain PMI UFR122 (TEM-1, CTX-M-15), CLA @ 4 μg/ml+ ATB, read-out: MIC): 8 µg/mL
MIC ([5]; Proteus mirabilis, strain PMI UFR123 (CTX-M-1), CLA @ 4 μg/ml+ ATB, read-out: MIC): 16 µg/mL
MIC ([5]; Proteus mirabilis, strain PMI UFR125 (CTX-M-71), CLA @ 4 μg/ml+ ATB, read-out: MIC): 4 µg/mL
MIC ([5]; Proteus mirabilis, strain PMI UFR126 (TEM-2, PER-1), CLA @ 4 μg/ml+ ATB, read-out: MIC): 16 µg/mL
MIC ([5]; Proteus mirabilis, strain PMI UFR127 (VEB-1), CLA @ 4 μg/ml+ ATB, read-out: MIC): 32 µg/mL
MIC ([5]; Proteus mirabilis, strain PMI UFR129 (TEM-1, VEB-6), CLA @ 4 μg/ml+ ATB, read-out: MIC): 2 µg/mL
MIC ([5]; Proteus mirabilis, strain PMI UFR237 (VEB-6), CLA @ 4 μg/ml+ ATB, read-out: MIC): 4 µg/mL
